Source: PMC12922749 (Science Advances, 2026)
Where two headings read alike, the source gives them in different places. Values belong to the compound of their own block, whether it stands above or below them.

Key:
Assay in all cases: SPR
Assay type in all cases: binding
[1] = molecular target: Nur77
[2] = molecular target: Nur77; remark: listed apart in the source
[3] = molecular target: Nur77; remark: listed apart in the source

Kd [1]: 1.44 µM
SMILES: CCCCC/C=C\C[C@@H](O)/C=C/C=C\C/C=C\CCCC(=O)O [12R-HETE]

Kd [2]: 13.9 µM
SMILES: CCCCC/C=C\C[C@H](O)/C=C/C=C\C/C=C\CCCC(=O)O [12S-HETE]

Kd [3]: 28.9 µM
SMILES: CCCCCCCC(=O)c1c(O)cc(O)cc1CC(=O)OCC [Cytosporone B]
